Calls of active or inactive are those of the source.
Experiments:
Cytochrome P450 2C19 = Cytochrome P450 2C19 (Homo sapiens, UniProt P33261); experiment: Cytochrome panel assay with activity outcomes. Panel member name: p450-cyp2c19 Compounds with AC50 equal or less than 10 uM are considered active; type: functional
[1] = inhibitors of intracellular T. cruzi replication, confirmation, NIH3T3 host cells, beta-gal luminescence (AID 2044); type: functional, cell-based;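 note: intracellular parasites grown in NIH/3T3 mouse fibroblasts as host cells; luminescent beta-galactosidase reporter signal from transgenic T. cruzi replicating inside host cells; inhibitors lower the luminescence signal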
[2] = cytotoxicity toward NIH3T3 fibroblasts, dose response, counter-screen, cell-based, ATP luminescence, mouse fibroblasts (AID 2010); type: functional;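 note: cells exposed to compound for about 90 hours before reading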
Cytochrome P450 3A4 = Cytochrome P450 3A4 (Homo sapiens, UniProt P08684);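 note: CYP3A4 tested as one member of a cytochrome P450 panel screen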
Chain of Cytochrome P450 3A4 (P08684 whole entry): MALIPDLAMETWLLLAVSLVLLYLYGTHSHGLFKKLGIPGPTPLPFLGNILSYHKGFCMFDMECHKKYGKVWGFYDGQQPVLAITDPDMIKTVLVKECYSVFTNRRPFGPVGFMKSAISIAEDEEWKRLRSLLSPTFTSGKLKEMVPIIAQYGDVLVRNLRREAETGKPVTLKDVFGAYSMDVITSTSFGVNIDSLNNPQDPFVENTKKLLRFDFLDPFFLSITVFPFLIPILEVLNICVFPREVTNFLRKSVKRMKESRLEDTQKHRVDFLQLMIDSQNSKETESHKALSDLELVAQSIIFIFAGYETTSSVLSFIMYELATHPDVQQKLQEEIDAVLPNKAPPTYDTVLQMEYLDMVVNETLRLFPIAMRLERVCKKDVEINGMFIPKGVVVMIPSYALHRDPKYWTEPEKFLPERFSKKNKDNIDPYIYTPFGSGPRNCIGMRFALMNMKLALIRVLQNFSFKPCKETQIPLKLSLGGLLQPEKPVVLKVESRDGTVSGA

Cytochrome P450 1A2 = target: T1, Cytochrome P450 1A2 (Homo sapiens, UniProt P05177);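 note: PubChem cytochrome P450 panel assay, CYP1A2 panel member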
T1 sequence (P05177 whole entry): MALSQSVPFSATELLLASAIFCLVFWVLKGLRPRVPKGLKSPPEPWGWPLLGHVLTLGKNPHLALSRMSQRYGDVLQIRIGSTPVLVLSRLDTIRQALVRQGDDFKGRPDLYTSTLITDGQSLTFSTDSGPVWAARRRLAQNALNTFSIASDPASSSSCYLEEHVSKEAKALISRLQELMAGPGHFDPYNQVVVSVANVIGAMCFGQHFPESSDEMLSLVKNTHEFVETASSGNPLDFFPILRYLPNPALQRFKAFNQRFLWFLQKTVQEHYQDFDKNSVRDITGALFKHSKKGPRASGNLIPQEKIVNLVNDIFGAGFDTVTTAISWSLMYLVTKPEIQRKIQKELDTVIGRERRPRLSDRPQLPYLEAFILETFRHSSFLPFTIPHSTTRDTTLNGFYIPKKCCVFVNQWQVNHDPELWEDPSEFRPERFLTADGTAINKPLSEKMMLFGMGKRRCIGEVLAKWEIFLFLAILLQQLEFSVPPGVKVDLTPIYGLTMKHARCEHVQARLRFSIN

[3] = Luminescence Cell-Based Dose Retest to Confirm Inhibitors of Cancer Stem Cells. [Related pubchem assays (depositor defined):AID2717, AID2721]; type: functional; settings: Homo sapiens
[4] = system: Streptococcus sp. 'group A'; experiment: growth inhibition of control SK(-) GAS strain, dose response, counter-screen for streptokinase expression inhibitor project, luminescence, kanamycin, BacTiterGlo, confirmation (AID 1900); type: functional, organism-based
Streptococcus = experiment: Group A Streptococcus viability loss, dose response, counter-screen for streptokinase expression inhibitor project, luminescence, BacTiterGlo (AID 1915); type: functional, organism-based;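 note: potency for reduction of bacterial viability or growth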

Chain of Cytochrome P450 2C19 (P33261 whole entry): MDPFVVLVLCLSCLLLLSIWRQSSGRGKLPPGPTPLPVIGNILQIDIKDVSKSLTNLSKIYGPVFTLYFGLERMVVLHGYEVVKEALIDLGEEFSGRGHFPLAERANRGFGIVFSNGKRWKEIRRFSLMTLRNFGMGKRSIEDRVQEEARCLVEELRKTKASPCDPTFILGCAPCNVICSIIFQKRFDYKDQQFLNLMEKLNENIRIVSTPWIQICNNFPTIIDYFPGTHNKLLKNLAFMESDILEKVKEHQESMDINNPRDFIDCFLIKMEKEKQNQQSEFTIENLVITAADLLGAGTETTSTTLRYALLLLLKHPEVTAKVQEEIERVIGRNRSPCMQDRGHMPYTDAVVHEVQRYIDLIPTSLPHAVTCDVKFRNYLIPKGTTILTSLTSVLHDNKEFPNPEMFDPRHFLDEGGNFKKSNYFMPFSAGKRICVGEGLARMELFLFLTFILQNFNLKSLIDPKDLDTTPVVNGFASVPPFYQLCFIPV

CCn1c(SCC(=O)Nc2sc3c(c2C#N)CCC(C(C)(C)C)C3)nnc1-c1ccco1 (stereo not drawn)
AC50 (Cytochrome P450 2C19; read-out: AC50): 20 µM (inconclusive)

Cc1cccc(CNc2ncnc3ccc(-c4cccnc4)cc23)c1
AC50 (Cytochrome P450 2C19; read-out: AC50): 39.8 µM (inconclusive)

COc1cccc(CC2(CO)CCCN(Cc3ccc(-c4ccco4)cc3)C2)c1 (stereo not drawn)
EC50 [1]: 0.621 µM (active)
EC50 [2]: > 60 µM (not active)

CC1CCCC(NC(=O)C2CCN(S(=O)(=O)N3CCOCC3)CC2)C1C (stereo not drawn)
AC50 (Cytochrome P450 3A4): 11.2 µM (inconclusive)

O=C(Nc1cc(Sc2nc3ccccc3s2)cc([N+](=O)[O-])c1)c1ccccc1
EC50 [1]: 1.42 µM (active)
EC50 [2]: > 60 µM (not active)

Cc1nc(NC(=O)c2ccccc2)sc1-c1csc(NCCc2ccccc2)n1
EC50 [1]: 2.25 µM (active)
EC50 [2]: > 60 µM (not active)

N=C(C[C@@H](O)COc1ccccc1-c1ccccc1)N1CCCCC1
AC50 (Cytochrome P450 1A2): 39.8 µM (inconclusive)

N#Cc1cccc(NC(=O)N2CC3(CCN(C(=O)c4ccco4)CC3)C2)c1
AC50 (Cytochrome P450 2C19; read-out: AC50): 2 µM (inconclusive)
AC50 (Cytochrome P450 1A2): 25.1 µM (inconclusive)

CN(Cc1ccco1)c1ccnc(-c2cccc(NS(C)(=O)=O)c2)n1
AC50 (Cytochrome P450 2C19; read-out: AC50): 25.1 µM (inconclusive)

CCN(CC)S(=O)(=O)c1ccc2c(c1)c(=O)c(C(=O)NCCN(C)CCc1ccccc1)cn2C
EC50 [1]: 0.991 µM (active)
EC50 [2]: > 60 µM (not active)

C[C@@H]1c2ccccc2CN1CC1=NCCN1
AC50 (Cytochrome P450 1A2): 31.6 µM (inconclusive)
AC50 (Cytochrome P450 3A4): 31.6 µM (inconclusive)

CN1CCN(C(=O)COc2ccc(S(=O)(=O)Nc3ccc(F)cc3)cc2)CC1
EC50 [1]: 0.142 µM (active)
EC50 [2]: > 60 µM (not active)

O[C@@H](c1cc(-c2ccc(Cl)cc2)nc2ccccc12)[C@@H]1CCCCN1
AC50 (Cytochrome P450 2C19; read-out: AC50): 6.31 µM (inconclusive)

Cc1nnc(-c2cnn(-c3ccccc3)c2N)n1Cc1ccc(F)cc1
AC50 (Cytochrome P450 3A4): 25.1 µM (inconclusive)

CN1CCC(N(C)C(=O)c2ccccc2Nc2ccc(SC(F)F)cc2)CC1
EC50 [1]: 0.384 µM (active)
EC50 [2]: > 60 µM (not active)

COc1ccc(Cl)cc1C(=O)Nn1cnc2ccccc2c1=O
AC50 (Cytochrome P450 2C19; read-out: AC50): 11.2 µM (inconclusive)
AC50 (Cytochrome P450 3A4): 25.1 µM (inconclusive)

CN1CCN(CC(O)COCCOc2ccc(Br)cc2)CC1 (stereo not drawn)
EC50 [1]: 0.542 µM (active)
EC50 [2]: > 60 µM (not active)

O=C(c1ccc2c(c1)OCO2)C1CCCN(C2CCN(CCc3ccccc3)CC2)C1 (stereo not drawn)
EC50 [1]: 1.72 µM (active)
EC50 [2]: > 60 µM (not active)

Cn1cccc1C(=O)N1CCC[C@@]2(CCN(c3ccccn3)C2)C1
AC50 (Cytochrome P450 2C19; read-out: AC50): 39.8 µM (inconclusive)
AC50 (Cytochrome P450 1A2): 31.6 µM (inconclusive)
AC50 (Cytochrome P450 3A4): 12.6 µM (inconclusive)

Cc1ccc(-n2cc(CN(C)Cc3ncc[nH]3)c(-c3cccc(C)c3)n2)cc1
EC50 [1]: 1.16 µM (active)
EC50 [2]: > 60 µM (not active)

CC(=O)Nc1ccc(S(=O)(=O)NC(CC(=O)NCCCN2CCOCC2)C(C)C)cc1 (stereo not drawn)
AC50 (Cytochrome P450 3A4): 31.6 µM (inconclusive)

CC(C)(C)C1CCC(OCC(O)CN2CCN(Cc3ccccc3)CC2)CC1 (stereo not drawn)
EC50 [1]: 1.15 µM (active)
EC50 [2]: > 60 µM (not active)

O=c1c(-c2cccc(Cl)c2)nc2cncnc2n1Cc1ccc(F)cc1
AC50 (Cytochrome P450 3A4): 15.8 µM (inconclusive)

Cc1nc2cnc(Oc3cccc(Cl)c3)nc2n(CCc2ccccc2)c1=O
AC50 (Cytochrome P450 2C19; read-out: AC50): 7.94 µM (inconclusive)

CCCOc1ccc(/C=C/C(=O)Nc2ccc([N+](=O)[O-])cc2C)cc1OC
AC50 (Cytochrome P450 3A4): 2.82 µM (inconclusive)

NC(=O)CC(NC(=O)c1ccc(Br)cc1)c1ccc(NCc2ccc(F)cc2)c([N+](=O)[O-])c1 (stereo not drawn)
AC50 [3]: 3.96 µM (active)

C[C@@H]1/C=C\CC(=O)OC[C@H](C)C(=O)N[C@@H](C)C(=O)OC1
AC50 (Cytochrome P450 2C19): inconclusive

CC(=O)NCCNc1ncncc1-c1ccc(N(C)C)cc1
AC50 (Cytochrome P450 2C19; read-out: AC50): 20 µM (inconclusive)

COc1ccc(N=C(S)NC(NC(=O)c2cccc3ccccc23)C(Cl)(Cl)Cl)c([N+](=O)[O-])c1 (stereo not drawn)
EC50 [1]: 2.25 µM (active)
EC50 [2]: > 30 µM (not active)

Cc1nn(-c2ccc(F)cc2)c2nc(N)c(C#N)c(-c3ccc(O)c(O)c3)c12
EC50 [1]: 2.04 µM (active)
EC50 [2]: 15.6 µM (active)

Cn1c(=O)c2c(nc(C(=N)SCC(=O)O)n2C)n(C)c1=O
AC50 (Cytochrome P450 2C19): inconclusive

COc1ccc(CCn2c(SCCN3CCCCC3)nc3ccccc3c2=O)cc1OC
EC50 [1]: 0.936 µM (active)
EC50 [2]: > 60 µM (not active)

O=S(=O)(NCc1cn2ccsc2n1)c1ccc(Oc2ccccc2)cc1
AC50 (Cytochrome P450 1A2): 5.01 µM (inconclusive)

CC(C)(C)c1ccc(C(=O)Nc2ccc(N3CCOCC3)cc2)cc1
AC50 [3]: 4.04 µM (active)

N#C/C(=C(/O)c1ccc2c(c1)OCO2)c1nc2cc(C(F)(F)F)ccc2s1
EC50 [4]: 2.89 µM (active)
EC50 (Streptococcus): 4.33 µM (active)

COCC(=O)Oc1c(S(=O)(=O)c2ccc(C)cc2)c(C)nn1-c1ccccc1
AC50 (Cytochrome P450 2C19; read-out: AC50): 28.2 µM (inconclusive)
AC50 (Cytochrome P450 1A2): 6.31 µM (inconclusive)

Cc1nc2c(-c3ccccc3)cnn2c(O)c1Cc1ccccc1
EC50 [1]: 2.22 µM (active)
EC50 [2]: 14.6 µM (active)

COc1ccc(Oc2nc3ccccc3nc2C(F)(F)F)cc1
AC50 (Cytochrome P450 2C19; read-out: AC50): 3.16 µM (inconclusive)

Clc1ccccc1-c1nc(NC2CCNCC2)c2ccccc2n1
AC50 (Cytochrome P450 1A2): 20 µM (inconclusive)

Cn1cccc1C(=O)N1CCC2(CCCN(Cc3ccncc3)C2)CC1
AC50 (Cytochrome P450 2C19; read-out: AC50): 15.8 µM (inconclusive)
AC50 (Cytochrome P450 1A2): 15.8 µM (inconclusive)
AC50 (Cytochrome P450 3A4): 3.98 µM (inconclusive)

O[C@@H]1[C@@H](OCc2ccccc2)OC[C@H](O)[C@@H]1O
AC50 (Cytochrome P450 2C19): inconclusive

Cc1cc(C)cc(Oc2ncnc3c2ncn3Cc2c(Cl)cccc2Cl)c1
EC50 [1]: 1.95 µM (active)
EC50 [2]: > 60 µM (not active)

c1csc(CNCCCN2CCOCC2)c1
AC50 (Cytochrome P450 2C19; read-out: AC50): 14.1 µM (inconclusive)

CN1CCN(Cc2nc3cccc4c3c([n+]2[O-])-c2ccccc2-4)CC1
AC50 (Cytochrome P450 3A4): 3.98 µM (inconclusive)

CC(C)[C@@H]1CN[C@H](C(=O)O)[C@@H]1CC(=O)O
AC50 (Cytochrome P450 1A2): 39.8 µM (inconclusive)

O=C(NC1CCCN(CCc2ccccc2)C1)C1CCCC1 (stereo not drawn)
EC50 [1]: 1.3 µM (active)
EC50 [2]: > 60 µM (not active)

COCC(=O)N1CCC2(CCN(Cc3ccncc3)CC2)CC1
AC50 (Cytochrome P450 3A4): 15.8 µM (inconclusive)

O[C@@H]1[C@@H]2c3cc4c(cc3CN3CCC(=C[C@@H]1O)[C@H]23)OCO4
AC50 (Cytochrome P450 1A2): 15.8 µM (inconclusive)

O=C(O)C(Cc1ccccc1)Cc1ccccc1
AC50 (Cytochrome P450 1A2): 0.00501 µM (inconclusive)

CSc1nc(C)cc(OCC(=O)N/N=C/c2ccccc2O)n1
AC50 [3]: 3.38 µM (active)

O=C(CCn1cnc(-c2ccccc2)c1-c1ccccc1)N/N=C/c1ccccc1O
EC50 [4]: 0.47 µM (active)
EC50 (Streptococcus): 2.13 µM (active)

C=CCN1C[C@H](C)N([C@H](c2ccc(C(=O)N(CC)CC)cc2)c2cccc(O)c2)C[C@H]1C
AC50 (Cytochrome P450 1A2): 39.8 µM (inconclusive)

COc1ccccc1/C=C/C=N/N1CCN(Cc2cccc3ccccc23)CC1
AC50 (Cytochrome P450 3A4): 12.6 µM (inconclusive)

CC(=O)Nc1ccc(/C(C)=N/Nc2nc(Nc3ccccc3)nc(N3CCOCC3)n2)cc1
EC50 [1]: 0.345 µM (active)
EC50 [2]: 50.7 µM (active)

O=C(N/N=C/c1cc([N+](=O)[O-])ccc1O)c1c[nH]c2ccccc12
AC50 [3]: 6.85 µM (active)

CC(C)CC(=O)O/N=C1\C(=O)N(Cc2ccc(Cl)cc2)c2ccc([N+](=O)[O-])cc21
EC50 [1]: 4.6 µM (active)

COc1ccc(/C=N\N=C(N)N)cc1
EC50 [1]: 0.854 µM (active)
EC50 [2]: > 60 µM (not active)

CN(C)C(=N)NCCC[C@H](N)C(=O)O
AC50 (Cytochrome P450 2C19): inconclusive

CCOC(=O)Nc1ccc2c(c1)N(C(=O)CCN1CCOCC1)c1ccccc1S2 [MORICIZINE]
EC50 [1]: 5.85 µM (active)
EC50 [2]: > 60 µM (not active)
